# Like-named read-outs stand apart in the source and are kept apart here. No end group written: not given here.
# What was measured:
# [1] = tested on: E. coli clinical isolate 40; test: Resistance profile of clinical isolate (VITEK-2); type: cell-based; conditions: Escherichia coli, isolate from blood
# Excerpt: (§1) Approximately 50 bacterial samples were then collected from E. coli-infected patients for evaluating activity of the peptides against some clinical isolates. These samples were identified and biochemically and metabolically characterised using the VITEK-2 equipment. Isolates were profiled regarding their resistance or susceptibility to a panel of conventionally used antibiotics.
# [2] = tested on: E. coli clinical isolate 44; test: Resistance profile of clinical isolate (VITEK-2); type: cell-based; conditions: Escherichia coli, isolate from blood
# Excerpt: as §1
# [3] = tested on: E. coli clinical isolate 4; test: Resistance profile of clinical isolate (VITEK-2); type: cell-based; conditions: Escherichia coli, isolate from urine
# Excerpt: as §1
# E. coli ML35 43827 [4] = type: cell-based; conditions: broth microdilution
# [5] = tested on: E. coli 35218 (ampicillin-resistant ATCC 35218 strain); type: cell-based; conditions: broth microdilution
# E. coli ATCC 11775 = type: cell-based; conditions: broth microdilution
# E. coli ATCC 25922 [6] = type: cell-based; conditions: for MIC E. coli 25922: broth microdilution, MHB, ~5 × 10^5 CFU/mL, 18 h, 37 °C, OD 620 nm, 100 to 0.2 µM
# P. aeruginosa 27853 = test: MIC by broth microdilution; type: cell-based; conditions: MHB, 18 h, 37 °C
# [7] = tested on: human red blood cells (hRBC); test: Haemolytic activity (MHC); type: cell-based; conditions: 5% v/v hRBC in 1X PBS, 200–0.39 µM, 1 h, 37 °C, absorbance 560 nm
# Procedure: A haemolytic activity assay was used for determining whether peptides acted on hRBC membrane by calculating the minimum haemolytic concentration (MHC). Briefly, 100 µL serial dilutions of peptides were incubated in a 96-well plate with an equal volume of a fresh hRBC suspension at 5% v/v in 1X PBS (200–0.39 µM final peptide concentrations). The samples were spun at 1000× g for 5 min after having been incubated at 37 °C for 1 h and a Multiskan spectrometer (Thermo Fisher) was used for measuring 100 µL supernatant absorbance at 560 nm. Treated hRBC absorbance 0.1% Triton X-100 or 100% haemolysis was used as positive control.
# E. coli ATCC 25922 [8] = test: Bactericidal activity (MBC); type: cell-based; conditions: aliquots of no-growth MIC wells on LBA, 18 h, 37 °C; kills 99.9%
# Procedure: (§2) Bactericidal activity was evaluated by sowing an aliquot of Luria Bertani agar (LBA) in the wells where no growth had been detected in the MIC assay.
# E. coli ML35 43827 [9] = test: Bactericidal activity (MBC); type: cell-based
# Procedure: as §2
# E. coli 35218 = type: cell-based
# Procedure: as §2
# [10] = tested on: E. coli N°4 (clinical isolate); conditions: clinical isolate from urine, broth microdilution
# Procedure: (§3) The standard broth microdilution method was used for determining the peptides’ MIC [41]. […] Bacteria in Müller–Hinton broth (MHB) were used as negative control. […] The MIC was determined as the lowest peptide concentration at which bacterial growth was not detected.
# as §1
# [11] = tested on: E. coli N°40 (clinical isolate); conditions: clinical isolate from blood, broth microdilution
# Procedure: as §3, §1
# [12] = tested on: E. coli N°44 (clinical isolate); conditions: clinical isolate from blood, ESBL (+), broth microdilution
# Procedure: as §3, §1
# [13] = tested on: E. coli N°44 (clinical isolate); type: cell-based
# Procedure: as §2
# Approximately 50 bacterial samples were then collected from E. coli-infected patients for evaluating activity of the peptides against some clinical isolates. These samples were identified and biochemically and metabolically characterised using the VITEK-2 equipment. Isolates were profiled regarding their resistance or susceptibility to a panel of conventionally used antibiotics. Three E. coli isolates having different resistance profiles were then selected following such characterisation (Appendix A): • Isolate 4 (from urine): extended spectrum beta-lactamase (ESBL) (-), resistant to ampicillin, quinolones and co-trimoxazole. • Isolate 40 (from blood): ESBL (-), resistant to ampicillin, 1st-generation cephalosporins and co-trimoxazole. • Isolate 44 (from blood): ESBL (+), resistant to aminoglycosides, quinolones, β-lactams (including 1st-, 3rd- and 4th-generation cephalosporins).
# E. coli 25922 = test: Antibacterial activity in the presence of human sera; type: cell-based
# Procedure: The second assay involved peptide dilution in fresh human sera (100%) pre-incubated for 6 h at 37 °C in a humid chamber before putting them in contact with the bacterial inoculum diluted in MHB (~5 × 10^5 CFU/mL). The assay was incubated and read as mentioned in the microdilution section.
# E. coli [14] = tested on: E. coli
# Procedure: (§4) The checkerboard method was used for evaluating peptide antibacterial activity in combination with antibiotics [43]. […] Absorbance was measured at 620 nm and individual peptide and antibiotic MIC and combined MIC were obtained. […] The fractional inhibitory concentration index (FICI) was then calculated as the sum of peptide FIC + antibiotic FIC. A ≤ 0.5 FICI indicated synergy, 0.5 to ≤4 FICI indifference, and >4 FICI antagonism [45].
# (§5) The results were interpreted by taking the lowest checkerboard FIC index (previously reported method 3) [44].
# E. coli [15] = tested on: E. coli; remark: listed apart in the source
# Procedure: as §4, §5
Compound,MIC [1] [µg/mL],MIC [2] [µg/mL],MIC [3] [µg/mL],MIC E. coli 25922 (E. coli ATCC 25922 [6]) [µM],MIC P. aeruginosa 27853 (P. aeruginosa 27853) [µM],MHC (minimum haemolytic concentration) [7] [µM],other results
CC(=O)OCC1=C(C(=O)O)N2C(=O)[C@@H](NC(=O)Cc3cccs3)[C@H]2SC1 [Cephalothin],16,≥ 64,4,,,,
"CC1(C)S[C@@H]2[C@H](NC(=O)[C@H](N)c3ccccc3)C(=O)N2[C@H]1C(=O)O [Ampicillin, ampicillin, reference compound]",≥ 32,≥ 32,≥ 32,,,,MIC E. coli ML35 43827 (antibiotics) (E. coli ML35 43827 [4]): <0.016 µg/mL; MIC E. coli 35218 (antibiotics) [5]: >16 µg/mL; MIC E. coli 11775 (antibiotics) (E. coli ATCC 11775): <0.016 µg/mL
CO/N=C(\C(=O)N[C@@H]1C(=O)N2C(C(=O)[O-])=C(C[N+]3(C)CCCC3)CS[C@H]12)c1csc(N)n1 [Cefepime],,,≤ 1,,,,
CCn1cc(C(=O)O)c(=O)c2ccc(C)nc21 [Nalidixic acid],≤ 2,≥ 32,≥ 32,,,,
C[C@@H](O)[C@H]1C(=O)N2C(C(=O)O)=C(S[C@@H]3CN[C@H](C(=O)N(C)C)C3)[C@H](C)[C@H]12 [Meropenem],≤ 0.25,≤ 0.25,≤ 0.25,,,,
RYRRKKKMKKALQYIKL-NH2 [Peptide 35409-8],,,,>100,>100,>200,
KMKKALQY-NH2 [Peptide 35409-16],,,,>100,>100,>200,
KKMKKALQYIKLLKE-NH2 [Peptide 35409-3],,,,>100,>100,>200,
RYRRKKKMKKALQY-NH2 [Peptide 35409-9],,,,>100,>100,>200,
C[C@@H](O)[C@H]1C(=O)N2C(C(=O)O)=C(SCCN=CN)C[C@H]12 [Imipenem],≤ 1,≤ 1,≤ 1,,,,
CO/N=C(\C(=O)N[C@@H]1C(=O)N2C(C(=O)O)=C(COC(C)=O)CS[C@H]12)c1csc(N)n1 [Cefotaxime],≤ 1,≥ 64,≤ 1,,,,
MKKALQYIKLLKE-NH2 [Peptide 35409-5],,,,>100,>100,>200,
CC(C)(O/N=C(\C(=O)N[C@@H]1C(=O)N2C(C(=O)[O-])=C(C[n+]3ccccc3)CS[C@H]12)c1csc(N)n1)C(=O)O [Ceftazidime],≤ 1,≥ 64,≤ 1,,,,
RYRRKKKMKKA-NH2 [Peptide 35409-10],,,,>100,>100,>200,
RYRRKKK-NH2 [Peptide 35409-12],,,,>100,>100,>200,
KKMKKALQYIKL-NH2 [Peptide 35409-14],,,,>100,>100,100,
KKKMKKALQYIKLLKE-NH2 [Peptide 35409-2],,,,25,>100,>200,"MIC against E. coli 25922, MHB (E. coli ATCC 25922 [6]; no serum): 25 µM; MBC E. coli 25922 (E. coli ATCC 25922 [8]): 25 µM; MBC E. coli ML35 43827 (E. coli ML35 43827 [9]): 12.5 µM; MIC E. coli ML35 43827 (E. coli ML35 43827 [4]): 6 µM; MIC E. coli 35218 [5]: 12.5 µM; MBC E. coli 35218 (E. coli 35218): 25 µM; MIC E. coli 11775 (E. coli ATCC 11775): >100 µM; MIC E. coli N°4 [10]: >100 µM; MIC E. coli N°40 [11]: 50 µM; MIC E. coli N°44 [12]: 50 µM; MBC E. coli N°44 [13]: > 100 µM; MIC against E. coli 25922, Serum (without Pre-Incubation) (E. coli 25922; peptide diluted in fresh human sera (100%), then inoculum in MHB ~5 × 10^5 CFU/mL, 18 h, 37 °C): 25 µM; FIC Index (E. coli [14]; peptide + ciprofloxacin, lowest checkerboard FIC index (method 3)): 3; FIC P (peptide) (E. coli [14]; with ciprofloxacin): 1; FIC Index (E. coli [15]; peptide + gentamicin, lowest checkerboard FIC index (method 3)): 0.75; FIC P (peptide) (E. coli [15]; with gentamicin): 0.25"
RKKKMKKALQY-NH2 [Peptide 35409-15],,,,>100,>100,200,
ALQYIKLLKE-NH2 [Peptide 35409-6],,,,>100,>100,>200,
NCC[C@H](O)C(=O)N[C@@H]1C[C@H](N)[C@@H](O[C@H]2O[C@H](CN)[C@@H](O)[C@H](O)[C@H]2O)[C@H](O)[C@H]1O[C@H]1O[C@H](CO)[C@@H](O)[C@H](N)[C@H]1O [Amikacin],≤ 2,32,≤ 2,,,,
CO[C@@]1(NC(=O)Cc2cccs2)C(=O)N2C(C(=O)O)=C(COC(N)=O)CS[C@@H]21 [Cefoxitin],≤ 4,≤ 4,≤ 4,,,,
RYRRKKKMKK-NH2 [Peptide 35409-11],,,,>100,>100,>200,
YIKLLKE-NH2 [Peptide 35409-7],,,,>100,>100,>200,
O=C1CN(/N=C/c2ccc([N+](=O)[O-])o2)C(=O)N1 [Nitrofurantoin],≤ 16,≤ 16,≤ 16,,,,
"O=C(O)c1cn(C2CC2)c2cc(N3CCNCC3)c(F)cc2c1=O [Ciprofloxacin, ciprofloxacin, reference compound]",,,,,,,"MIC (E. coli 25922; Escherichia coli, 25922, read-out: MIC against E. coli 25922, Serum (6 h Pre-Incubation) (ciprofloxacin), fresh human sera (100%), 6 h pre-incubation at 37 °C): 4 ng/mL"
